Assay [1] in a line: Binding affinity against kappa opioid receptor from calf frontal cortex.
The nature of assay [2]: Binding affinity against delta opioid receptor from calf frontal cortex.
Another assay addresses Mu-type opioid receptor (Bos taurus, UniProt P79350). In words: ChEBML_136067. The text has this: Binding affinity against mu opioid receptor from calf frontal cortex.

Mu-type opioid receptor, sequence (P79350 whole entry): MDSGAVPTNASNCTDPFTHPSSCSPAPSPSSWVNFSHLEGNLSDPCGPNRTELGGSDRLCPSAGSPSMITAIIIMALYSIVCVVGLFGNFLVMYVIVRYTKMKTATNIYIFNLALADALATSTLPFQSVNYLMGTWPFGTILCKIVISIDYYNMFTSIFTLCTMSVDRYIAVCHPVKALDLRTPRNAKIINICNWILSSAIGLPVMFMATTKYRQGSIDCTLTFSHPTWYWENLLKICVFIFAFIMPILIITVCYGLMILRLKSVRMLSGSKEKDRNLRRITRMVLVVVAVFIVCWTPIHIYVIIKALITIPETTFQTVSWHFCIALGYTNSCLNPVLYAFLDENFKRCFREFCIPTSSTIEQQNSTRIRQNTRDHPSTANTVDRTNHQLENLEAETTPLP

Regarding `CN1CC[C@]23c4c5ccc(O)c4O[C@H]2C(=O)CC[C@@]3(NC(=O)/C=C/c2ccc([N+](=O)[O-])cc2)[C@H]1C5`, the values for the IC50 in assay [1] and in assay [2] were 6.6 nM and 3.5 nM, respectively.

`C[C@@]12Oc3c(O)ccc4c3C13CCN(CC1CC1)C(C4)[C@]3(NC(=O)/C=C/c1ccc([N+](=O)[O-])cc1)CCC2=O` (stereo partly drawn) [1N-[4-cyclopropylmethyl-10-hydroxy-13-methyl-14-oxo-(13R,17S)-12-oxa-4-azapentacyclo[9.6.1.01,13.05,17.07,18]octadeca-7(18),8,10-trien-17-yl]-4-(4-nitrophenyl)-(Z)-2-butenamide]: the IC50 (in general, the midpoint of a concentration-inhibition curve) in assay [1] stood at 126 nM; in assay [2] it was 11 nM.

Take `O=C(/C=C/c1ccc([N+](=O)[O-])cc1)N[C@@]12CCC(=O)[C@@H]3Oc4c(O)ccc5c4[C@@]31CCN(CC1CC1)[C@@H]2C5` [1N-[4-cyclopropylmethyl-10-hydroxy-14-oxo-(13R,17S)-12-oxa-4-azapentacyclo[9.6.1.01,13.05,17.07,18]octadeca-7(18),8,10-trien-17-yl]-4-(4-nitrophenyl)-(Z)-2-butenamide]: the IC50 in assay [1] was 12 nM; in assay [2] it was 21 nM.

For `COc1ccc2c3c1O[C@H]1C(=O)C=C[C@@]4(NC(=O)C=Cc5ccc([N+](=O)[O-])cc5)C(C2)N(C)CCC314` (stereo partly drawn) [1N-[10-methoxy-4-methyl-14-oxo-(13R,17S)-12-oxa-4-azapentacyclo[9.6.1.01,13.05,17.07,18]octadeca-7(18),8,10,15-tetraen-17-yl]-4-(4-nitrophenyl)-(Z)-2-butenamide], the IC50 was 68 nM in assay [1] and 46 nM in assay [2].

In turn, `C[C@@]12Oc3c(O)ccc4c3C13CCN(CC1CC1)C(C4)[C@]3(NC(=O)CCc1ccc([N+](=O)[O-])cc1)CCC2=O` (stereo partly drawn) [1N-[4-cyclopropylmethyl-10-hydroxy-13-methyl-14-oxo-(13R,17S)-12-oxa-4-azapentacyclo[9.6.1.01,13.05,17.07,18]octadeca-7(18),8,10-trien-17-yl]-3-(4-nitrophenyl)propanamide] gave an IC50 in assay [1] of 162 nM.

In the case of `CN1CCC23c4c5ccc(O)c4O[C@@]2(C)C(=O)CC[C@@]3(NC(=O)/C=C/c2ccc([N+](=O)[O-])cc2)C1C5` (stereo partly drawn) [1N-[10-hydroxy-4,13-dimethyl-14-oxo-(13R,17S)-12-oxa-4-azapentacyclo[9.6.1.01,13.05,17.07,18]octadeca-7(18),8,10-trien-17-yl]-4-(4-nitrophenyl)-(Z)-2-butenamide], the figures for the IC50 in assay [1] and in assay [2] were 116 nM and 51 nM, respectively.

With `COc1ccc2c3c1O[C@H]1C(=O)C=C[C@@]4(NC(=O)C=Cc5ccc([N+](=O)[O-])cc5)C(C2)N(CC2CC2)CCC314` (stereo partly drawn) [1N-[4-cyclopropylmethyl-10-methoxy-14-oxo-(13R,17S)-12-oxa-4-azapentacyclo[9.6.1.01,13.05,17.07,18]octadeca-7(18),8,10,15-tetraen-17-yl]-4-(4-nitrophenyl)-(Z)-2-butenamide], the IC50 on Mu-type opioid receptor was 1.5 nM; in assay [1], 5 nM; in assay [2], 54 nM.

On to `O=C(C=Cc1ccc([N+](=O)[O-])cc1)N[C@@]12C=CC(=O)[C@@H]3Oc4c(O)ccc5c4C31CCN(CC1CC1)C2C5` (stereo partly drawn) [1N-[4-cyclopropylmethyl-10-hydroxy-14-oxo-(13R,17S)-12-oxa-4-azapentacyclo[9.6.1.01,13.05,17.07,18]octadeca-7(18),8,10,15-tetraen-17-yl]-4-(4-nitrophenyl)-(Z)-2-butenamide], for which the IC50 stood at 11 nM in assay [1] and 106 nM in assay [2].

For the origin of these results see BindingDB's records for doi:10.1021/jm00073a015 (Institute, 1993).
